Here are results for nine molecules from patent US20230117034A1, “PYRAZOLOTRIAZINES” (Bayer Aktiengesellschaft, priority 2019, published 2023).

For one test, the target named is T1, CDK2/CycE (Homo sapiens, UniProt P24941).
T1 construct: purchased ProQinase GmbH (Freiburg, Germany); host or cells: insect cells (Sf9)
The experiment in a line: CDK2/CycE kinase assay (TR-FRET, 2 mM ATP). It counts as biochemical. The conditions noted are these: 2 mM ATP (high ATP); median; read-out: CDK2/CyclinE, 2 mM ATP (high ATP), IC50 (median). In outline:
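Biotin-peptide phosphorylation (0.75 µM substrate, 2 mM ATP final, 25 min, 22 °C) by Sf9-expressed GST-CDK2/GST-CycE, after a 15-min compound pre-binding step. Inhibition scaled between enzyme-free (100%) and uninhibited (0%) wells.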
(In general: In TR-FRET formats the signal depends on donor and acceptor labels being close together.)

In test [1] the test system is MDA-MB-231, human breast cancer cells. The experiment in a line: Proliferation assay MDA-MB-231 (crystal violet, 4 days). It counts as cell-based. The conditions noted are these: Homo sapiens, MDA-MB-231, 96 h, MDA-MB-231 cells, median, read-out: Prolif-MDA MB-231, IC50-[mol/l] (median). In outline:
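IC50 from a 4-parameter fit of crystal violet absorbance (595 nm), scaled between the day-of-dosing plate (0%) and vehicle cells (100%). MDA-MB-231 or CAL-120 cells were treated for 4 days with 0.01–10 micromol/L compound in 0.1% DMSO after 24 h attachment.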

The target of test [2] is T2, CDK12 (nuclear staining in CAL-120 cells) (Homo sapiens, UniProt Q9NYV4).
T2 construct: endogenous in cells; host or cells: CAL-120 human breast cancer cells (DSMZ ACC 459)
The test can be described thus: CDK12 nuclear protein level: immunofluorescence/high content analysis (CAL-120). The conditions noted are these: for DC50: CAL-120 cells, 24 h, immunofluorescence, 50% reduction of nuclear CDK12 staining intensity, median, read-out: CDK12 degradation IF, DC50- [mol/l] (median); for (IC50 CDK12 high ATP) to (Degradation DC50 CDK12) ratio: ratio of IC50 CDK12 high ATP kinase assay to DC50 CDK12 degradation (IF, CAL-120). In kind it is cell-based. The gist of the method:
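DC50 is the degrader concentration that halves nuclear CDK12 immunofluorescence relative to controls, measured by high-content imaging. CAL-120 cells were exposed to compound for 24 h at 37 °C before PFA fixation, and signal was normalized to DMSO and control wells.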

T2 sequence (Q9NYV4 whole entry): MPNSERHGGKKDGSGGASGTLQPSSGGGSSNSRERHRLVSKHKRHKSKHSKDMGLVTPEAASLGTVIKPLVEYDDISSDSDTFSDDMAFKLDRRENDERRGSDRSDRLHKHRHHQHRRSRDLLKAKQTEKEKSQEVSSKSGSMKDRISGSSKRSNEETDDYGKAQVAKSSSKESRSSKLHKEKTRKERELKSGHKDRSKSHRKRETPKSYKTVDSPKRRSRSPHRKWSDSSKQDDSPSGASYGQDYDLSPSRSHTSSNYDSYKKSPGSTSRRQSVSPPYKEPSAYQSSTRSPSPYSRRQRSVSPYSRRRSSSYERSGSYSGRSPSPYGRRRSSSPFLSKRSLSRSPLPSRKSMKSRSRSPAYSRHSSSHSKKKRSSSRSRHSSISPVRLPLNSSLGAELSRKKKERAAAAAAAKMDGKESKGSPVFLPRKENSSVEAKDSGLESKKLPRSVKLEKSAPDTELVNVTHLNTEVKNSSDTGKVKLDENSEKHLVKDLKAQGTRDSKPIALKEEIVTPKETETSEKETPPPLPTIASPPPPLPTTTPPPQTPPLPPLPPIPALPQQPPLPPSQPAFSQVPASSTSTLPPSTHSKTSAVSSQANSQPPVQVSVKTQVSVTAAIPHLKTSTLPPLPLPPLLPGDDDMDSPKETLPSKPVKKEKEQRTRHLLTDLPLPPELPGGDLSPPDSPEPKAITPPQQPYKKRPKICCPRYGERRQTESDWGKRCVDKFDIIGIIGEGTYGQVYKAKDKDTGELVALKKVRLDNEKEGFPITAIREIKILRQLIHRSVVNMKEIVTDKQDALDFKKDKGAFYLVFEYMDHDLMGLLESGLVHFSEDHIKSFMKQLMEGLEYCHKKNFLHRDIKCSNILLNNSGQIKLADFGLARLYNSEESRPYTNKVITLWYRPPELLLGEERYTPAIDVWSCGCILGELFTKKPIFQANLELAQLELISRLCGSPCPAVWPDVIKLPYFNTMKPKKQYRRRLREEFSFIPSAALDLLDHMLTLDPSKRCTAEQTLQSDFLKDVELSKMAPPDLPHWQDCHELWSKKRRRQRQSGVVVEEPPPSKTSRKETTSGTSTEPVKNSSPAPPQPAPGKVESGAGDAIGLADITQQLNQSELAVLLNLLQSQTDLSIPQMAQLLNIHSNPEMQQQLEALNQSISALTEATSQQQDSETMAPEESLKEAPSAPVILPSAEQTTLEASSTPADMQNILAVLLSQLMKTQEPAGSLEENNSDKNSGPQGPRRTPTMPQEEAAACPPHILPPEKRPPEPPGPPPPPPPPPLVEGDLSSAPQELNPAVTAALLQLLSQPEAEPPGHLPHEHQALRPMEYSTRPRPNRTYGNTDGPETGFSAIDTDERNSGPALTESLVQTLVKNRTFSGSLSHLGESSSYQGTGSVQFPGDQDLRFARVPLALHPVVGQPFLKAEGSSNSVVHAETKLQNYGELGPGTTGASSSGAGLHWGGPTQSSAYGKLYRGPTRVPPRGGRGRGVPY
T2 sequence (O75909 whole entry partner): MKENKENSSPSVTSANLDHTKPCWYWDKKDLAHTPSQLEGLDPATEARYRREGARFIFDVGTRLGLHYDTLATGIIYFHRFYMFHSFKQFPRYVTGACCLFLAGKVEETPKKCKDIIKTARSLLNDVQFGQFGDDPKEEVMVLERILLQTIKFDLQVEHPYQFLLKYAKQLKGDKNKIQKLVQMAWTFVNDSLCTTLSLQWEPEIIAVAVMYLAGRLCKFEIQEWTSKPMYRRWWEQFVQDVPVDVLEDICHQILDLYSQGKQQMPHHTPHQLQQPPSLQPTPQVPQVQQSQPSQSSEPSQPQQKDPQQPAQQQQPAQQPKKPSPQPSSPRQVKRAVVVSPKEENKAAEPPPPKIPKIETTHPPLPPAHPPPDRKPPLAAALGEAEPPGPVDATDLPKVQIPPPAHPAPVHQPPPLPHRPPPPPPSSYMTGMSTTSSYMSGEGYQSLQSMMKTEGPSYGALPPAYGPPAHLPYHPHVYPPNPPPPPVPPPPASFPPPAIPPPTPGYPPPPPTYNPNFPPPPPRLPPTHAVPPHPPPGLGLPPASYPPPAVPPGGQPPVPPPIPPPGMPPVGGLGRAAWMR

In the case of `Brc1cnn2c(NCc3nc4c([nH]3)CCCC4)nc(N3CCOCC3)nc12` [Example 21, 8-bromo-2-(morpholin-4-yl)-N-[(4,5,6,7-tetrahydro-1H-benzimidazol-2-yl)methyl]pyrazolo[1,5-a][1,3,5]triazin-4-amine], the IC50 on CDK2/CycE is 2.07 µM. In test [1], the IC50 turned out to be 285 nM. Further, in test [2], the DC50 is 186 nM and the “(IC50 CDK12 high ATP) to (Degradation DC50 CDK12) ratio” value is recorded as 52.

`CC1(N)CCN(c2nc(NCc3nc4ccccc4[nH]3)n3ncc(Br)c3n2)CC1` [Example 290, 2-(4-amino-4-methylpiperidin-1-yl)-N-[(1H-benzimidazol-2-yl)methyl]-8-bromopyrazolo[1,5-a][1,3,5]triazin-4-amine]: at CDK2/CycE, the IC50 turned out to be 7.21 µM. The IC50 in test [1] was found to be 64.9 nM. In test [2], the DC50 was found to be 21.5 nM and the “(IC50 CDK12 high ATP) to (Degradation DC50 CDK12) ratio” value is over 920.

On to `Fc1ccc2[nH]c(CNc3nc(N4CCOCC4)nc4c([C@@H]5CC5(F)F)cnn34)nc2c1` (single isomer, unassigned) [Example 315, 8-[(1R or S)-2,2-difluorocyclopropyl]-N-[(5-fluoro-1H-benzimidazol-2-yl)methyl]-2-(morpholin-4-yl)pyrazolo[1,5-a][1,3,5]triazin-4-amine], for which, at CDK2/CycE, the IC50 was over 20 µM. Further, in test [1], the IC50 came out at 88 nM. Besides, in test [2], the DC50 was 33.9 nM and the “(IC50 CDK12 high ATP) to (Degradation DC50 CDK12) ratio” value is over 581.

For the molecule `Fc1ccc2[nH]c(CNc3nc(N4CCOCC4)nc4c(C5CC5(F)F)cnn34)nc2c1` (racemic) [Example 286, 8-[(1RS)-2,2-difluorocyclopropyl]-N-[(5-fluoro-1H-benzimidazol-2-yl)methyl]-2-(morpholin-4-yl)pyrazolo[1,5-a][1,3,5]triazin-4-amine], the IC50 on CDK2/CycE was over 20 µM; in test [1], 20 nM. In addition, the DC50 in test [2] was 5.38 nM. In addition, the “(IC50 CDK12 high ATP) to (Degradation DC50 CDK12) ratio” value in test [2] worked out at 2107.

Turning to `NC12CC1CN(c1nc(NCc3nc4ccccc4[nH]3)n3ncc(Br)c3n1)C2` (centres unmarked) [Example 258, 2-(1-amino-3-azabicyclo[3.1.0]hexan-3-yl)-N-(1H-benzimidazol-2-ylmethyl)-8-bromo-pyrazolo[1,5-a][1,3,5]triazin-4-amine], the IC50 at CDK2/CycE was 3.1 µM; in test [1], 55.5 nM. Further, the DC50 in test [2] is 3.79 nM. In addition, the “(IC50 CDK12 high ATP) to (Degradation DC50 CDK12) ratio” value in test [2] is 1239.

As to `Fc1ccc2[nH]c(CNc3nc(N4CCOCC4)nc4c(Br)cnn34)nc2c1F` [Example 25, 8-bromo-N-[(4,5-difluoro-1H-benzimidazol-2-yl)methyl]-2-(morpholin-4-yl)pyrazolo[1,5-a][1,3,5]triazin-4-amine], on CDK2/CycE, the IC50 was found to be 4.56 µM. In addition, in test [2], the DC50 was found to be 0.674 nM and the “(IC50 CDK12 high ATP) to (Degradation DC50 CDK12) ratio” value is reported as 1084.

Turning to `Brc1cnn2c(NCc3nc4cccnc4[nH]3)nc(N3CCNCC3)nc12.O=CO` [Example 19, 8-bromo-N-[(3H-imidazo[4,5-b]pyridin-2-yl)methyl]-2-(piperazin-1-yl)pyrazolo[1,5-a][1,3,5]triazin-4-amine formic acid salt], the IC50 at CDK2/CycE was 11.4 µM. In test [2], the DC50 came out at 10.9 nM and the “(IC50 CDK12 high ATP) to (Degradation DC50 CDK12) ratio” value worked out at 1056.

Regarding `CN1CCN(c2nc(NCc3nc4c(F)cccc4[nH]3)n3ncc(C(F)(F)F)c3n2)CC1` [Example 293, N-[(4-fluoro-1H-benzimidazol-2-yl)methyl]-2-(4-methylpiperazin-1-yl)-8-(trifluoromethyl)pyrazolo[1,5-a][1,3,5]triazin-4-amine], the IC50 in test [1] is 36.1 nM. Also, in test [2], the DC50 is 1.71 nM and the “(IC50 CDK12 high ATP) to (Degradation DC50 CDK12) ratio” value stood at 3446.

Consider `Fc1ccc2[nH]c(CNc3nc(N4CCOCC4)nc4c(C(F)(F)F)cnn34)nc2c1` [Example 273, N-[(5-fluoro-1H-benzimidazol-2-yl)methyl]-2-(morpholin-4-yl)-8-(trifluoromethyl)pyrazolo[1,5-a][1,3,5]triazin-4-amine], for which the IC50 in test [1] is 6 nM. Besides, in test [2], the DC50 amounted to 1.44 nM and the “(IC50 CDK12 high ATP) to (Degradation DC50 CDK12) ratio” value was found to be 512.
